The values that follow come from US20240335569A1, “FIBROBLAST ACTIVATION PROTEIN INHIBITORS AND USE THEREOF” (3 B PHARMACEUTICALS GMBH, priority 2021, published 2024).

For data set [1], the target named is T1, Human recombinant FAP (Homo sapiens (Human), UniProt Q12884). Kind of data set: Surface plasmon resonance assay (Biacore T200, SCK). It counts as binding. Particulars: for HL [min] (Biacore): SPR dissociation half-life; for Kd / pKD (Biacore): SPR; for Kd: read-out: pKD (Biacore) (converted). The procedure:
Surface plasmon resonance studies were performed using a Biacore™ T200 SPR system (Cytiva, formerly GE Healthcare). Briefly, polarized light is directed towards a gold-labeled sensor surface, and minimum intensity reflected light is detected. The angle of reflected light changes as molecules bind and dissociate. […] Test compounds are contacted with the loaded surface, and a real-time interaction profile with the FAP ligand is recorded in a sensorgram. In real-time, the association and dissociation of a binding interaction is measured, enabling calculation of association and dissociation rate constants and the corresponding affinity constants. Importantly, a background response is generated due to the difference in the refractive indices of the running and sample buffers, as well as unspecific binding of the test compounds to the flow cell surface. This background is measured and subtracted by running the sample on a control flow cell coated with the same density of capture antibody in the absence of immobilized FAP. Furthermore, baseline drift correction of the binding data is performed, which is caused by slow dissociation of the captured FAP from the immobilized antibody. This drift is measured by injecting running buffer through a flow cell with the antibody and FAP immobilized to the sensor surface.
Biacore™ CM5 sensor chips were used. […] A 150 μL aliquot was transferred into plastic vials and placed into the sample rack of the Biacore™ T200 instrument. Amine Coupling Kit Reagent solutions were transferred into plastic vials and placed into the sample rack: 90 μL of 0.4 M 1-ethyl-3-(3-dimethylaminopropyl) carbodiimide (EDC), and 90 μL of 0.1 M N-hydroxysuccinimide (NHS). A 130 μL aliquot of 1 M ethanolamine-HCl, pH 8.5, was transferred into plastic vials and placed into the sample rack. The Biacore™ liquid system was set-up as follows: Separate bottles containing distilled water (1 L), Running Buffer (500 mL), as well as an empty bottle for waste were placed onto the buffer tray. A preinstalled program for immobilization was used, with an immobilization level of 7000 RU. Immobilization was performed at 25° C. The immobilization procedure of anti-FAP antibodies was performed, as described in the Table 4.
Human recombinant FAP was diluted in Running Buffer to a final concentration of 20 μg/mL. A 100 μL aliquot of human FAP-Working-Solution was transferred into plastic vials and placed into a sample rack. A 0.5 mM Compound-Stock-Solution was prepared by dissolving each compound in DMSO. For each test compound, Compound-Stock-Solutions were diluted in Running Buffer (HBST) at 500 nM and further diluted with HBST-DMSO Buffer (0.1% DMSO). SPR binding analyses for binary complexes were performed in SCK mode at 25° C. Following three SCK measurements, a baseline drift was assessed by injecting running buffer through a flow cell, with the antibody and FAP immobilized to the sensor surface.
For each test compound, SPR raw data in the form of resonance units (RU) were plotted as sensorgrams using the Biacore™ T200 control software. The signal from the blank sensorgram was subtracted from that of the test compound sensorgram (blank corrected). The blank corrected sensorgram was corrected for baseline drift by subtracting the sensorgram of a SCK run without the test compound (running buffer only). The association rate (kon), dissociation rate (koff), dissociation constant (KD), and t1/2 were calculated from Blank-normalized SPR data using the 1:1 Langmuir binding model from the Biacore™ T200 evaluation software. Raw data and fit results were imported as text files in IDBS. The pKD value (negative decadic logarithm of dissociation constant) was calculated in the IDBS excel template.
Target sequence in this assay (Q12884 whole entry): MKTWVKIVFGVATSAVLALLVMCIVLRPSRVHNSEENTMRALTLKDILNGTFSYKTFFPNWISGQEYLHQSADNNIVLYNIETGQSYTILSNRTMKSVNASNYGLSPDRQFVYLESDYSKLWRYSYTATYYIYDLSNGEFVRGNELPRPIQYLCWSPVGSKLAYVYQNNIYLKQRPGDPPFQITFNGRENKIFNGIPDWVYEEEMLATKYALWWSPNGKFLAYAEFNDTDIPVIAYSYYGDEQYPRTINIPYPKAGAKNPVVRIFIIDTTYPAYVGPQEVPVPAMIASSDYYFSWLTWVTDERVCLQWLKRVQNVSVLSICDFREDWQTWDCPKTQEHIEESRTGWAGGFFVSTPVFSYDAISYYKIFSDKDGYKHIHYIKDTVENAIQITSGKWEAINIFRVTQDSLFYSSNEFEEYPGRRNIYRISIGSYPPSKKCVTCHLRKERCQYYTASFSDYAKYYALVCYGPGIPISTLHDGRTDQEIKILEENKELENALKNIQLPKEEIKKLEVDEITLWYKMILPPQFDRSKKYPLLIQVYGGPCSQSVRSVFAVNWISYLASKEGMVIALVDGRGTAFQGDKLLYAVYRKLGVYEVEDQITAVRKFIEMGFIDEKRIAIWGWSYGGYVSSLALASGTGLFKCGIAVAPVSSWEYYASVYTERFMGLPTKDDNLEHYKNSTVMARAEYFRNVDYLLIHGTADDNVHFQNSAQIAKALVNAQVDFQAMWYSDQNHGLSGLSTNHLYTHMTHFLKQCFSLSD

Data set [2] addresses FAP-expressing human WI-38 fibroblasts (Homo sapiens (Human), UniProt Q12884). Kind of data set: FACS binding assay (competitive, Cy5-labeled 3BP-2935). The procedure:
In order to determine binding of compounds according to the present invention to FAP-expressing cells, a competitive FACS binding assay was established. […] Cells were diluted in FACS buffer to a final concentration of 100.000 cells per ml and 200 μl of the cell suspension are transferred to a u-shaped non-binding 96-well plate (Greiner). […] Cell were washed twice with FACS buffer (see above) and resuspended in 200 μl FACS buffer. Cells were analyzed in an Attune NxT flow cytometer (Thermo Fisher Scientific). Median fluorescence intensities (Cy5 channel) were calculated by Attune NxT software and plotted against test compound concentrations. Four parameter logistic (4PL) curve fitting and pIC50 calculations were performed using ActivityBase software.

In data set [3] the target is T1, Human recombinant FAP. Kind of data set: FAP protease activity assay (human), FRET-based. It counts as biochemical. Conditions: for IC50: read-out: pIC50 (Activity) (converted). The procedure: In order to determine the inhibitory activity a FRET-based FAP protease activity assay was established.
Four parameter logistic (4PL) curve fitting and pIC50 calculations were performed using ActivityBase software (IDBS).
Target sequence in this assay (Q12884 26-760): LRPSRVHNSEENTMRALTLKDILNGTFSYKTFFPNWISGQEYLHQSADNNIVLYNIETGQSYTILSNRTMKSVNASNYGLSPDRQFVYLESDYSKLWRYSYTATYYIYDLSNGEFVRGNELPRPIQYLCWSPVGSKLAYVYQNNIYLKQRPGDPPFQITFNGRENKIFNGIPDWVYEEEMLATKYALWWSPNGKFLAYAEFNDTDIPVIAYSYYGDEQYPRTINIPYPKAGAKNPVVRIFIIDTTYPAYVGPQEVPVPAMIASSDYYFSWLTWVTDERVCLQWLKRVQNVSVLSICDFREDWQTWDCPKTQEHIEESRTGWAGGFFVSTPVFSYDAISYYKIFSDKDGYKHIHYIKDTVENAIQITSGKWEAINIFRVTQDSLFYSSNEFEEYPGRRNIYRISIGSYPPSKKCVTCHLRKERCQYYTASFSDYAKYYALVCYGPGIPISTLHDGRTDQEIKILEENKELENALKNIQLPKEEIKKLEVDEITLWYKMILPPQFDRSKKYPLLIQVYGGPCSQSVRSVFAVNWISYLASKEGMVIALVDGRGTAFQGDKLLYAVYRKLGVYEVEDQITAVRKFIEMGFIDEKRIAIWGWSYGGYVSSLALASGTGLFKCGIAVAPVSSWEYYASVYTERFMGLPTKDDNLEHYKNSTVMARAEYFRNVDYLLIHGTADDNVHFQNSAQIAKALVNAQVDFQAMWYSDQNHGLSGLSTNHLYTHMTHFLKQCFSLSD

Data set [4] relates to HT-29 cells. Kind of data set: Stability in the presence of tumor cells (HT-29), FAP IC50 of supernatants. It counts as in vitro ADME, human. Particulars: for pIC50 (incubation in the presence of HT-29 cells) / pIC50 (incubation in cell medium w/o HT-29): 10 μM compound, supernatant tested on recombinant human FAP; for pIC50 (incubation in the presence of HT-29 cells): 24 hours at 37° C. with HT-29 cells; for pIC50 (incubation in cell medium w/o HT-29): 24 hours at 37° C. in control wells without cells.
Description: Cells were cultured in McCoys's 5A modified medium (Biochrom, #F1015) including 10% fetal bovine serum (FBS), 2 mM L-glutamine, 100 U/ml penicillin and 100 μg/mL streptomycin (growth medium). […] 1 mL of the cell suspension were seeded in 24-well plates and incubated overnight at 37° C. and 5% CO2. The next day, cells were washed twice and growth medium was exchanged against DMEM without phenol red (Biochrom, #F0475) including 2 mM L-glutamine. Test compound was diluted in DMEM without phenol red (Biochrom, #F0475) including 2 mM L-glutamine. 400 μL of a 10 μM solution of the test compound was incubated for 24 hours at 37° C. and 5% CO2 in the presence of cells as well as in control wells (without cells) of the same 24-well plate.
25 μL of a 30 μM substrate solution, diluted in assay buffer, was added. All solutions were equilibrated at 37° C. prior to use. […] RFU/sec was calculated by SoftMax Pro software and plotted against test compound concentration. Four parameter logistic (4PL) curve fitting and IC50/pIC50 calculations were performed using GraphPad Prism 9.1 software.
The stability of exemplary compounds was further assessed in the presence of a variety of human cell lines from different tissue origins. […] Compounds were diluted in DMEM without phenol red (Biochrom, #F0475) including 2 mM L-glutamine. 400 μL of a 10 μM solution of the test compound was incubated for 24 hours at 37° C. and 5% CO2 in the presence of cells as well as in control wells (without cells) of the same 24-well plate. IC50/pIC50 determination of the supernatants was performed as described above.

For data set [5], the target named is Recombinant human DPP4 (Homo sapiens (Human), UniProt P27487). Kind of data set: DPP4 protease activity assay. Type of data set: biochemical. The procedure:
The PREP activity assay was performed using the FACS buffer (PBS including 1% FBS, Sigma-Aldrich, Cat #D8537). […] The DPP4 activity assay was performed in DPP assay buffer (25 mM Tris, pH 8.0). […] Four parameter logistic (4PL) curve fitting and pIC50 calculations were performed using ActivityBase software.

[6] abbreviates: FAP-expressing WI-38 fibroblasts.
[7] abbreviates: recombinant human FAP, FRET protease activity.
Where [8] appears, read: human FAP protease activity, FRET.

Structures are written as SMILES.

FAP-expressing human WI-38 fibroblasts, sequence (Q12884 whole entry): as the sequence (Q12884 whole entry) above
Recombinant human DPP4, sequence (P27487 whole entry): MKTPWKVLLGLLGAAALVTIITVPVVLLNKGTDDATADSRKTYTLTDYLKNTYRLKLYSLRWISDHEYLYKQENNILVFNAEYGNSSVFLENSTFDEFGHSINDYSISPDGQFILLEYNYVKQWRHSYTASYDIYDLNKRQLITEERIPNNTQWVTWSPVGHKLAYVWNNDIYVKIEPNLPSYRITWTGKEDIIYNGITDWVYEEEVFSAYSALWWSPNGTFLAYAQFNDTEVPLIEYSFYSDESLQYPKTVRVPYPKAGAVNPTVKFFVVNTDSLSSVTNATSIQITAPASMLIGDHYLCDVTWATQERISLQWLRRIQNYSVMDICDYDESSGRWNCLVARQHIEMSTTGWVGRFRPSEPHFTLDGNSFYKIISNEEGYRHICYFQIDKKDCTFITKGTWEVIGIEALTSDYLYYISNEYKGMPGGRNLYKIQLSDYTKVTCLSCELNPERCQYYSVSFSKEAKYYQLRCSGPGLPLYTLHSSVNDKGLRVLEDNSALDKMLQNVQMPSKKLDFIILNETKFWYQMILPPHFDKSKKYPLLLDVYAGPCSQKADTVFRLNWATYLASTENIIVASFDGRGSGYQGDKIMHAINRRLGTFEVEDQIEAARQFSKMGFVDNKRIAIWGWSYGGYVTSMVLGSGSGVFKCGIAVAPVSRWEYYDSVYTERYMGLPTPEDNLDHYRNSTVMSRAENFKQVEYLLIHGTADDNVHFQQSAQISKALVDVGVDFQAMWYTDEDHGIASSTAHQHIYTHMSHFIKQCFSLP

Take `CS(=O)(=O)c1ccc(-c2ccc3nccc(C(=O)NCC(=O)N4CC(F)(F)C[C@H]4C#N)c3c2)c(CO)c1` [Compound 3BP-4084, (S)—N-(2-(2-cyano-4,4-difluoropyrrolidin-1-yl)-2-oxoethyl)-6-(2-(hydroxymethyl)-4-(methylsulfonyl)phenyl)quinoline-4-carboxamide]: in data set [1], the “HL [min] (Biacore)” value was above 150 min.

As to `CC(C)(C)OC(=O)N1CC[N+]([O-])(CCCOc2ccc3nccc(C(=O)NCC(=O)N4CC(F)(F)C[C@H]4C#N)c3c2)CC1` [Compound 3BP-3577], the “pIC50 (FACS)” value in data set [2] (setting [6]) came to 8.6. The “pIC50 (Activity)” value in data set [3] (setting [7]) is recorded as 9.

Regarding `O=C(NCC(=O)N1CCC[C@H]1C(=O)CO)c1ccnc2ccccc12` [Compound 3BP-4197, (S)—N-(2-(2-(2-hydroxyacetyl)pyrrolidin-1-yl)-2-oxoethyl)quinoline-4-carboxamide], the IC50 in data set [2] (WI-38 fibroblasts) is 10 nM; in data set [3] (setting [8]) it was 3.16 nM. In data set [1], the “HL [min] (Biacore)” value was found to be 3.1 min. In data set [1], the Kd is 1 nM.

Regarding `CC(C)(C)OC(=O)N1CCN(CCCOc2ccc3nccc(C(=O)NCC(=O)N4CC(F)(F)C[C@H]4C#N)c3c2)CC1` [Compound 3BP-3580], the “pIC50 (FACS)” value in data set [2] (setting [6]) was found to be 8.4. Moreover, the “pIC50 (Activity)” value in data set [3] (setting [7]) came to 8.8.

For `N#C[C@@H]1CC(F)(F)CN1C(=O)CNC(=O)c1ccnc2ccc(-c3ccc(C(=O)NCCN4CCN(C(=O)CN5CCN(CC(=O)O)CCN(CC(=O)O)CCN(CC(=O)O)CC5)CC4)nc3)cc12` [Compound 3BP-4076, (S)-2,2′,2″-(10-(2-(4-(2-(5-(4-(2-(2-cyano-4,4-difluoropyrrolidin-1-yl)-2-oxoethylcarbamoyl)quinolin-6-yl)picolinamido)ethyl)piperazin-1-yl)-2-oxoethyl)-1,4,7,10-tetraazacyclododecane-1,4,7-triyl)triacetic Acid], the IC50 was 1.26 nM in data set [2] (WI-38 fibroblasts) and 0.631 nM in data set [3] (setting [8]). Further, the “HL [min] (Biacore)” value in data set [1] is above 150 min. Further, in data set [1], the Kd was below 0.0316 nM.

For the molecule `O=C(O)CN1CCN(CC(=O)O)CCN(CC(=O)NCCCNC(=O)c2ccc(-c3ccc4nccc(C(=O)NCC(=O)N5CCC[C@H]5B(O)O)c4c3)cc2)CCN(CC(=O)O)CC1` [Compound 3BP-4201], in data set [1], the “pKD (Biacore)” value is above 10.5 and the “HL [min] (Biacore)” value is above 150 min.

With `N#C[C@@H]1CC(F)(F)CN1C(=O)CNC(=O)c1ccnc2ccccc12` [Compound 3BP-3232], in data set [4], the “pIC50 (incubation in the presence of HT-29 cells)” value is 8.0 and the “Residual activity after incubation with HT-29 cells for 24 hours (%)” value (“Residual activity after incubation … (%)” below) was found to be 13%.

Regarding `COc1cccc2c(C(=O)NCC(=O)N3CC(F)(F)C[C@H]3C#N)ccnc12` [Compound 3BP-4085], the “pIC50 (FACS)” value in data set [2] (WI-38 fibroblasts) is listed as 7.7. Also, the “pIC50 (Activity)” value in data set [3] (setting [8]) turned out to be 8.2.

Turning to `CC(C)(C)OC(=O)N1CCN(CCCOc2ccc3c(c2)c(C(=O)NCC(=O)N2CC(F)(F)C[C@H]2C#N)cc[n+]3[O-])CC1` [Compound 3BP-3579], the “pIC50 (FACS)” value in data set [2] (setting [6]) is recorded as 8. In addition, the “pIC50 (Activity)” value in data set [3] (setting [7]) was 8.6.

Turning to `CCOc1cccc2c(C(=O)NCC(=O)N3CC(F)(F)C[C@H]3C#N)ccnc12` [Compound 3BP-4151], the “pIC50 (FACS)” value in data set [2] (WI-38 fibroblasts) is recorded as 7.7. Moreover, the “pIC50 (Activity)” value in data set [3] (setting [8]) came out at 8.5.

As for `O=C(NCC(=O)N1CCC[C@H]1B(O)O)c1ccnc2ccccc12` [Compound 3BP-4081], the “pIC50 (FACS)” value in data set [2] (WI-38 fibroblasts) is 8.5. In data set [3] (setting [8]), the “pIC50 (Activity)” value was 8.9.

Turning to `Cn1ncnc1C(=O)[C@@H]1CCCN1C(=O)CNC(=O)c1ccnc2ccccc12` [Compound 3BP-3207], the “pIC50 (FACS)” value in data set [2] (setting [6]) is listed as below 6. Further, the “pIC50 (Activity)” value in data set [3] (setting [7]) worked out at 6.5.

Take `CS(=O)(=O)c1ccc(-c2ccc3c(C(=O)NCC(=O)N4CC(F)(F)C[C@H]4C#N)ccnc3c2)cc1` [Compound 3BP-3236]: the “HL [min] (Biacore)” value in data set [1] was determined as 37 min.

As to `N#C[C@@H]1CCCN1C(=O)CNC(=O)c1ccnc2ccccc12` [Compound 3BP-2762], in data set [4], the “pIC50 (incubation in cell medium w/o HT-29)” value amounted to 8.4 and the “Residual activity after incubation … (%)” value turned out to be 63%. In data set [5], the “pIC50 (DPP4)” value was below 6.

As to `N#C[C@@H]1CC(F)(F)CN1C(=O)CNC(=O)c1ccnc2ccc(-c3ccc(C(=O)NCCCNC(=O)CN4CCN(CC(=O)O)CCN(CC(=O)O)CCN(CC(=O)O)CC4)cc3)cc12` [Compound 3BP-3621], in data set [1], the “pKD (Biacore)” value was above 10.5 and the “HL [min] (Biacore)” value is on record as above 150 min.

With `Cc1cccc2c(C(=O)NCC(=O)N3CC(F)(F)C[C@H]3C#N)ccnc12` [Compound 3BP-4150], in data set [2] (WI-38 fibroblasts), the “pIC50 (FACS)” value came out at 7.6. Further, the “pIC50 (Activity)” value in data set [3] (setting [8]) worked out at 7.9.

Consider `N#C[C@@H]1CC(F)(F)CN1C(=O)CNC(=O)c1ccnc2ccc(-c3ccc(C(=O)NCCN4CCN(C(=O)CN5CCN(CC(=O)O)CCN(CC(=O)O)CCN(CC(=O)O)CC5)CC4)cc3)cc12` [Compound 3BP-3631], for which, in data set [1], the “pKD (Biacore)” value is listed as above 10.5 and the “HL [min] (Biacore)” value was above 150 min.

On to `O=C(O)CN1CCN(CC(=O)O)CCN(CC(=O)N2CCN(CCCOc3ccc4nccc(C(=O)NCC(=O)N5CC(F)(F)C[C@H]5C(=O)c5nc6ccccc6o5)c4c3)CC2)CCN(CC(=O)O)CC1` [Compound 3BP-3412], for which, in data set [4], the “pIC50 (incubation in the presence of HT-29 cells)” value was 8.6 and the “Residual activity after incubation … (%)” value is above 95%. Also, the “HL [min] (Biacore)” value in data set [1] turned out to be 57 min.

Consider `N#C[C@@H]1CC(F)(F)CN1C(=O)CNC(=O)c1ccnc2ccc(-c3ccc(S(=O)(=O)CCCNC(=O)CN4CCN(CC(=O)O)CCN(CC(=O)O)CCN(CC(=O)O)CC4)cc3)cc12` [Compound 3BP-3467], for which, in data set [4], the “pIC50 (incubation in cell medium w/o HT-29)” value came to 9.3, the “pIC50 (incubation in the presence of HT-29 cells)” value came to 8.4 and the “Residual activity after incubation … (%)” value worked out at 13%. Besides, in data set [1], the “pKD (Biacore)” value is above 10.5 and the “HL [min] (Biacore)” value was above 150 min.

As to `CC(C)(C)OC(=O)N1CC[N+]([O-])(CCCOc2ccc3c(c2)c(C(=O)NCC(=O)N2CC(F)(F)C[C@H]2C#N)cc[n+]3[O-])CC1` [Compound 3BP-3578], in data set [2] (setting [6]), the “pIC50 (FACS)” value is on record as 8. In data set [3] (setting [7]), the “pIC50 (Activity)” value came to 8.6.

Consider `N#C[C@@H]1CCCN1C(=O)CNC(=O)c1ccnc2ccc(-c3ccc(C(=O)NCCCNC(=O)CN4CCN(CC(=O)O)CCN(CC(=O)O)CCN(CC(=O)O)CC4)cc3)cc12` [Compound 3BP-3785], for which the “HL [min] (Biacore)” value in data set [1] is reported as above 150 min.
